According to patent publication US10266806B2, “Stem cell-derived hepatocytes in co-culture and uses thereof” (Colorado State University Research Foundation, priority 2014, dated 2019):
“Also recorded” adds a separate entry of the source. Like-named read-outs stand apart in the source and are kept apart here.

Columns and labels:
[1] = cited from earlier work
[2] = system: primary human hepatocytes in MPCCs; details: (ref 19); cited from earlier work
iHeps in iMPCCs [3] = system: iHeps in iMPCCs
[4] = negative number: withdrawn from the market; higher positive numbers: greater DILI concern; cited from earlier work
iHeps in iMPCCs [5] = assay: Drug toxicity screening in iMPCCs (albumin, ATP, urea; binary decision and TC50)
iMPCCs = assay: Drug toxicity studies: iMPCCs treated for 8 days with multiple doses; details: increasing doses
CYP1A2 = CYP1A2 induction in iMPCCs (7-ethoxyresorufin O-dealkylation); type: cell-based, human
CYP2C9 [6] = details: rifampin 25 μM or phenobarbital 1 mM, 4 days
CYP3A4 = details: human
CYP2C9 [7] = details: rifampin 25 μM or phenobarbital 1 mM, 4 days; remark: listed apart in the source

In the case of `NNC(=O)c1ccncc1` [Isoniazid], the Cmax ([1]; total human plasma concentration) is listed as 76.6 µM, the “TC50 in MPCCs Urea” value [2] is listed as 4.5796 mM and the “toxicity call in iMPCCs / iHeps” value (iHeps in iMPCCs [3]) is listed as “toxic”. For the same compound, the “Model predictions iCC (binary decision)” value (iHeps in iCCs) was “−”, the “toxicity call in iCCs” value (iHeps in iCCs) was “non-toxic” and the “DILI Sev (DILI severity scores from the LTKB of the FDA)” value [4] was 8. For the same compound, the “TC50 in MPCCs Albumin” value (iHeps in iMPCCs [5]) was 6.6815 mM.

For `COc1ccc2c(c1)[C@]13CCCC[C@@H]1[C@H](C2)N(C)CC3` [Dextromethorphan HBr], the Cmax ([1]; human, in vivo) is listed as 0.028 µM, the “albumin production in iMPCCs” value (iMPCCs) is listed as “minimally affected” and the “urea production in iMPCCs” value (iMPCCs) is listed as “minimally affected”.

For `COc1ccc2[nH]c([S+]([O-])Cc3ncc(C)c(OC)c3C)nc2c1` (centres unmarked) [omeprazole], the “induction of iMPCC CYP1A2 activity” value (CYP1A2; 4 days) was “dose-dependent manner” and the “CYP1A2 fold induction in iMPCCs as % of values in PHH-MPCCs” value (CYP1A2; same dose and duration) was roughly 70%.

For `CCC1(c2ccccc2)C(=O)NC(=O)NC1=O` [phenobarbital], the “CYP2C9 functional activity induction in iMPCCs” value (CYP2C9 [6]) was “significant increases; also recorded: induced”, the “CYP2C9 gene expression induction in iMPCCs” value (CYP2C9 [6]) was “inducible; also recorded: induced” and the “fold induction of CYP3A4 transcripts in iMPCCs relative to PHH-MPCCs” value (CYP3A4) was 60-130%. For the same compound, the “induction in CYP3A4 functions in iMPCCs relative to PHH-MPCCs” value (CYP3A4) was 44-79% and the “CYP2C9 induction response in iCCs” value (CYP2C9 [7]) was “induced functional activity; also recorded: severely blunted”.
